According to the RepoRT retention time repository (doi:10.1016/j.foodchem.2021.129757):
Blank lines part the entries; values can stand above or below the compound they belong to.

Assays:
Conditions in all cases: stereoisomer not certain
[1] = RP, 50 × 0.5 mm, 2.7 µm, 35 °C, 0.01 mL/min, estimated dead time 0.62 min; A: water + 0.1% formic acid, pH 3; B: acetonitrile + 0.1% formic acid, pH 3; gradient (min/%B) 0/5 12/95 14/95 16/5
[2] = RP, Phenomenex Synergi Hydro-RP, 150 × 2 mm, 4 µm, 30 °C, 0.5 mL/min, estimated dead time 0.6 min; A: water + 0.1% formic acid, pH 3; B: acetonitrile + 0.1% formic acid, pH 3; gradient (min/%B) 0/5 1/5 35/45 40/100 45/100
[3] = RP, Phenomenex Luna Omega Polar C18, 100 × 2.1 mm, 1.6 µm, 40 °C, 0.5 mL/min, estimated dead time 0.44 min; A: water + 0.5% formic acid; B: acetonitrile + 0.5% formic acid; gradient (min/%B) 0/5 3/50 3.1/100 5/100 5.1/5 7/5
[4] = RP, Phenomenex Luna C18, 150 × 4.6 mm, 3 µm, 25 °C, 0.5 mL/min, estimated dead time 3.2 min; A: water + 0.1% formic acid, pH 3; B: acetonitrile + 0.1% formic acid, pH 3; gradient (min/%B) 0/0 30/30 35/40 50/80 52/80 60/0 65/0
[5] = RP, Phenomenex Luna Omega Polar C18, 100 × 2.1 mm, 1.6 µm, 40 °C, 0.5 mL/min, estimated dead time 0.44 min; A: water + 0.1% formic acid + 10 mM ammonium formate; B: acetonitrile; gradient (min/%B) 0/5 8/20 10/100 12/100 12.1/5 14/5
[6] = RP, Waters ACQUITY UPLC HSS T3, 100 × 2.1 mm, 1.8 µm, 30 °C, 0.4 mL/min, estimated dead time 0.55 min; A: water + 0.1% formic acid, pH 3; B: acetonitrile + 0.1% formic acid, pH 3; gradient (min/%B) 0/0 2/0 15/100 22/100 22.1/0 26/0
[7] = RP, Agilent ZORBAX Eclipse XDB-C18, 100 × 2.1 mm, 1.8 µm, 50 °C, 0.4 mL/min, estimated dead time 0.55 min; A: water + 0.1% formic acid, pH 3; B: methanol + 0.1% formic acid, pH 3; gradient (min/%B) 0/2 10/100 14.5/100 14.51/2 16.5/2
[8] = RP, Waters ACQUITY UPLC BEH C18, 100 × 2.1 mm, 1.7 µm, 65 °C, 0.4 mL/min, estimated dead time 0.55 min; A: water + 0.1% formic acid, pH 3; B: 80% acetonitrile + 20% acetone + 0.1% formic acid, pH 3; gradient (min/%B) 0/0 5/100 5.5/0 6/0
[9] = RP, Waters ACQUITY UPLC BEH Shield RP18, 100 × 2.1 mm, 1.7 µm, 30 °C, 0.6 mL/min, estimated dead time 0.37 min; A: water + 0.1% formic acid, pH 3; B: acetonitrile + 0.1% formic acid, pH 3; gradient (min/%B) 0/0 2/0 7/10 22/95 22.1/0 26/0
[10] = RP, Waters ACQUITY UPLC BEH Shield RP18, 150 × 2.1 mm, 1.7 µm, 40 °C, 0.4 mL/min, estimated dead time 0.83 min; A: water + 0.1% formic acid, pH 3; B: acetonitrile + 0.1% formic acid, pH 3; gradient (min/%B) 0/0 30/50 31/100 37/100 37.1/0
[11] = RP, Agilent InfinityLab Poroshell 120 EC-C18, 100 × 3 mm, 2.7 µm, 25 °C, 0.4 mL/min, estimated dead time 1.1 min; A: water + 0.1% formic acid, pH 3; B: acetonitrile + 0.1% formic acid, pH 3; gradient (min/%B) 0/5 10/25 20/40 24/90 25/90 26/5 30/5
[12] = Other, Phenomenex Kinetex PFP, 100 × 4.6 mm, 5 µm, 45 °C, 0.6 mL/min, estimated dead time 1.8 min; A: water + 0.1% trifluoroacetic acid, pH 2; B: methanol; gradient (min/%B) 0/40 20/72 21/40
[13] = RP, Waters ACQUITY UPLC HSS T3, 100 × 2.1 mm, 50 °C; A: water + 0.1% formic acid, pH 3; B: 30% methanol + 70% acetonitrile + 0.1% formic acid, pH 3; gradient (min/%B) 0/5 1/8 2/15 3/40 4/70 4.5/100 5/100 6.4/100 6.6/5 6.8/5 7/5
[14] = RP, Agilent ZORBAX RRHD Eclipse Plus C18, 50 × 2.1 mm, 1.8 µm, 30 °C, 0.4 mL/min, estimated dead time 0.28 min; A: water + 0.1% formic acid, pH 3; B: acetonitrile + 0.1% formic acid, pH 3; gradient (min/%B) 0/1 5/10 8/25 9.1/99 10/99 12/1
[15] = RP, Agilent ZORBAX RRHD Eclipse Plus C18, 50 × 2.1 mm, 1.8 µm, 30 °C, 0.4 mL/min, estimated dead time 0.28 min; A: water + 0.1% formic acid, pH 3; B: acetonitrile + 0.1% formic acid, pH 3; gradient (min/%B) 0/1 5/10 8/25 9.1/99 10/99 12/99
[16] = RP, Merck LiChrospher RP-18, 250 × 4 mm, 5 µm, 35 °C, 0.3 mL/min, estimated dead time 6.7 min; A: water + 0.5% formic acid; B: acetonitrile + 0.5% formic acid; gradient (min/%B) 0/5 10/5 30/15 45/20 65/20 95/54 110/63 115/5 135/5
[17] = RP, Waters Atlantis T3, 100 × 2.1 mm, 3 µm, 40 °C, 0.3 mL/min, estimated dead time 0.73 min; A: water + 0.1% trifluoroacetic acid, pH 2; B: acetonitrile + 0.1% trifluoroacetic acid, pH 2; gradient (min/%B) 0/10 1/10 6/40 7/50 8/50 14/70 16/80 20/10 25/10
[18] = RP, Phenomenex Kinetex EVO C18, 100 × 2.1 mm, 2.6 µm, 40 °C, 0.4 mL/min, estimated dead time 0.55 min; A: water + 0.2% formic acid; B: acetonitrile + 0.2% formic acid; gradient (min/%B) 0/5 0.5/5 7/95 8/95 8.5/5 12/5

- LC retention time [1]: 5.08 min
- LC retention time [2]: 19.4 min
- LC retention time [3]: 2.68 min
- LC retention time [4]: 32.2 min
- LC retention time [5]: 9.31 min
- LC retention time [6]: 10.2 min
- LC retention time [7]: 5.5 min
- LC retention time [8]: 2.48 min
- LC retention time [9]: 13.5 min
- LC retention time [10]: 15 min
- LC retention time [11]: 12.1 min
SMILES: COc1cc(CC2COC(c3ccc(O)c(OC)c3)C2CO)ccc1O (single isomer, unassigned; (+)) [(+)-Lariciresinol]

- LC retention time [12]: 4.92 min
SMILES: Cc1ccc(O)c(OS(=O)(=O)O)c1 [4-Methylcatechol monosulfate]

- LC retention time [12]: 6.24 min
SMILES: Cc1ccc(O)c(O)c1 [4-methylcatechol]

- LC retention time [1]: 13.3 min
- LC retention time [3]: 4.6 min
- LC retention time [5]: 11.1 min
- LC retention time [6]: 20.3 min
- LC retention time [7]: 11.1 min
SMILES: CCCCCCCCCCCCCCCCCc1cc(O)cc(O)c1 [Alkylresorcinol C17:0]

- LC retention time [1]: 3.25 min
- LC retention time [2]: 9.85 min
- LC retention time [3]: 1.76 min
- LC retention time [4]: 9.83 min
- LC retention time [16]: 49 min
- LC retention time [6]: 7.85 min
- LC retention time [7]: 3.52 min
- LC retention time [9]: 10.8 min
- LC retention time [10]: 7.98 min
- LC retention time [11]: 5.65 min
- LC retention time [17]: 5.04 min
SMILES: OCC1OC(Oc2cc3c(O)cc(O)cc3[o+]c2-c2ccc(O)c(O)c2)C(O)C(O)C1O (configuration not stated) [Cyanidin 3-O-glucoside]

- LC retention time [12]: 7.77 min
SMILES: O=c1c(OC2OC(CO)C(O)C(O)C2O)c(-c2ccc(OS(=O)(=O)O)c(O)c2)oc2cc(O)cc(O)c12 (configuration not stated) [Isoquercitrin 4-O-sulfate]

- LC retention time [12]: 11.9 min
SMILES: O=c1cc(-c2ccc(OS(=O)(=O)O)c(O)c2)oc2cc(OS(=O)(=O)O)cc(O)c12 [Luteolin 7,4-disulfate]

- LC retention time [18]: 5.24 min
- LC retention time [16]: 83.2 min
- LC retention time [17]: 8.38 min
SMILES: CC=C1C(OC2OC(CO)C(O)C(O)C2O)OC=C(C(=O)OC)C1CC(=O)OCCc1ccc(O)c(O)c1 (configuration not stated) [Oleuropein]

- LC retention time [1]: 5.33 min
- LC retention time [18]: 5.59 min
- LC retention time [3]: 3.08 min
- LC retention time [4]: 35.8 min
- LC retention time [5]: 9.38 min
- LC retention time [6]: 10.6 min
- LC retention time [7]: 5.95 min
- LC retention time [9]: 14.9 min
- LC retention time [10]: 18.4 min
- LC retention time [11]: 13.1 min
SMILES: O=c1oc2cc(O)ccc2c2ccc(O)cc12 [Urolithin A]

Further lines, the compound ahead of its results:

SMILES: COc1cc(C2Oc3c(O)cc(-c4oc5cc(O)cc(O)c5c(=O)c4O)cc3C2CO)ccc1O (configuration not stated) [2,3-Dehydrosilychristin A]
- LC retention time [12]: 17.5 min

SMILES: O=C(O)C=Cc1ccc(O)cc1O [2,4-Dihydroxycinnamic acid]
- LC retention time [12]: 5.73 min
- LC retention time [13]: 3.08 min

SMILES: COc1c(O)cc(C(=O)O)cc1OS(=O)(=O)O [4-O-methylgallic acid 3-O-sulfate]
- LC retention time [1]: 1.84 min
- LC retention time [2]: 5.32 min
- LC retention time [3]: 1.41 min
- LC retention time [4]: 11.7 min
- LC retention time [5]: 1.78 min
- LC retention time [6]: 7.32 min
- LC retention time [7]: 2.27 min
- LC retention time [9]: 10.4 min
- LC retention time [14]: 3.6 min
- LC retention time [15]: 1.15 min
- LC retention time [11]: 3.61 min

SMILES: CCCCCCCCCCCCCCCCCCCCCCCCCc1cc(O)cc(O)c1 [Alkylresorcinol C25:0]
- LC retention time [3]: 5.12 min
- LC retention time [5]: 11 min
- LC retention time [7]: 13 min

SMILES: O=C1c2c(O)cc(O)cc2OC(c2cc(O)c(OS(=O)(=O)O)c(O)c2)C1O (configuration not stated) [Ampelopsin-4-O-sulfate]
- LC retention time [12]: 7.54 min

SMILES: O=S(=O)(O)Oc1ccccc1O [Catechol O-sulfate]
- LC retention time [2]: 4.29 min
- LC retention time [4]: 18.2 min
- LC retention time [13]: 2.26 min
- LC retention time [5]: 1.79 min
- LC retention time [7]: 2.1 min
- LC retention time [10]: 7.99 min
- LC retention time [14]: 2.95 min
- LC retention time [15]: 1.45 min
- LC retention time [11]: 4.22 min

SMILES: OCCc1ccc(O)c(O)c1 [Hydroxytyrosol]
- LC retention time [1]: 1.67 min
- LC retention time [4]: 8.55 min
- LC retention time [5]: 2.05 min
- LC retention time [6]: 7.27 min
- LC retention time [7]: 2.44 min
- LC retention time [10]: 3.26 min
- LC retention time [11]: 3.8 min

SMILES: O=c1cc(-c2ccc(O)c(OS(=O)(=O)O)c2)oc2cc(O)cc(O)c12 [Luteolin 3-sulfate]
- LC retention time [12]: 16.4 min

SMILES: O=c1cc(-c2ccc(OS(=O)(=O)O)c(O)c2)oc2cc(O)cc(O)c12 [Luteolin 4-sulfate]
- LC retention time [12]: 17.1 min

SMILES: O=c1c(O)c(-c2cc(O)c(OS(=O)(=O)O)c(O)c2)oc2cc(O)cc(O)c12 [Myricetin 4-O-sulfate]
- LC retention time [12]: 15.2 min

SMILES: Oc1cc(O)cc(O)c1 [Phloroglucinol]
- LC retention time [12]: 2.9 min

SMILES: O=c1c(OC2OC(CO)C(O)C(O)C2O)c(-c2ccc(O)c(O)c2)oc2cc(O)cc(O)c12 (configuration not stated) [Quercetin-3-O-glucoside]
- LC retention time [12]: 9.23 min

SMILES: COc1cc(C2Oc3c(O)cc(C4Oc5cc(O)cc(O)c5C(=O)C4O)cc3C2CO)ccc1O (configuration not stated) [Silychristin]
- LC retention time [12]: 10.3 min

SMILES: COc1cc(C2C3C=C(C4Oc5cc(O)cc(O)c5C(=O)C4O)C4C2COC4(O)C3=O)ccc1O (configuration not stated) [Silydianin]
- LC retention time [12]: 21.5 min

SMILES: CC1CCC2(C(=O)O)CCC3(C)C(=CCC4C5(C)CCC(O)C(C)(C)C5CCC43C)C2C1C (configuration not stated) [Ursolic acid]
- LC retention time [1]: 11.2 min
- LC retention time [3]: 1.8 min
- LC retention time [5]: 10.9 min
- LC retention time [6]: 18.1 min
- LC retention time [7]: 10.7 min
- LC retention time [9]: 22.7 min
- LC retention time [10]: 34.2 min
